From PMC9962304, “Insightful Improvement in the Design of Potent Uropathogenic E. coli FimH Antagonists” (Pharmaceutics, 2023)
“Also recorded” adds a separate entry of the source.

Columns and labels:
[1] = target: T1, FimH lectin domain (amino acids 1-158) (Escherichia coli, UniProt P08191); assay: biochemical; format: binding, E. coli; settings: for IC50: IC50, competitive inhibition of biotinylated Man-BSA binding to coated FimH lectin; for RIP (relative inhibitory potency): relative to reference MeMan, 23
T1 construct: using a FimH lectin domain (amino acids 1-158) LEctPROFILE kit (provided by GLYcoDiag); purchased GLYcoDiag (Orléans, France)
T1 sequence (P08191 22-179): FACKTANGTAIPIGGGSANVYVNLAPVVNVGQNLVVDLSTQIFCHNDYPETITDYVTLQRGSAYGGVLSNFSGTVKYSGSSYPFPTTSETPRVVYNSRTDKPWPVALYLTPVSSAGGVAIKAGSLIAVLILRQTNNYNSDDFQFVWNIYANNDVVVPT
Procedure: To measure the relative binding affinity of the newly synthesized compounds 11, 20, and 18 against FimH, the usual referenced standards were used for comparison with previously published data: heptyl α-D-mannopyranoside (HepMan, 21), para-nitrophenyl α-D-mannopyranoside (PNPMan, 22), and methyl α-D-mannopyranoside (MeMan, 23). The relative inhibitory potential of the above compounds was determined against a biotinylated Man-BSA conjugate using a FimH lectin domain (amino acids 1-158) LEctPROFILE kit (provided by GLYcoDiag) (Figure 1, Table 1).
FimH LEctPROFILE kit assays from GLYcoDiag (Orléans, France) were performed according to GlycoDiag’s protocol already described. Briefly, the interaction profiles of each compound were determined through a competitive inhibition assay based on the inhibition by the compounds of the interaction between FimH lectin coated onto the microplate surface and a biotinylated neoglycoprotein NeoM (Man-BSA) as a tracer. A mix of biotinylated Man-BSA (fixed concentration) and the corresponding compounds (range of concentrations) prepared in PBS supplemented with 1 mM CaCl2 and 0.5 mM MgCl2 was deposited in each well (50 µL each) in triplicate and incubated for two hours at room temperature. After washing with PBS buffer, the conjugate streptavidin-DTAF (dichlorotriazinylamino fluorescein) was added (50 µL) and incubated 30 min more. The plate was washed again with PBS. Finally, 100 µL of PBS was added for the readout of fluorescent plate performed with a fluorescence reader (Pherastar microplate reader, BMG labtech, λex = 485 nm, λem = 530 nm). The signal intensity is inversely correlated with the capacity of the compound to be recognized by the lectin and expressed as inhibition percentage with comparison with the corresponding tracer alone. Data analysis was performed with GraphPadPrism software (version 5.03 for windows, San Diego, CA, USA). 50% inhibitory concentration (IC50) was determined according to a standard dose-response/inhibition fitting model with the following equation: y = 100 / (1 + [inhibitor]/IC50) and expressed in nanomolar units.

[2] = tested on: strain CFT073 adhesion to HTB-9 cells; assay: Bacterial adhesion assay on bladder cell monolayers; format: cell-based, Escherichia coli / human; settings: for efficiency at reducing FimH-mediated bacterial adherence (result in words): 500 μM, HTB-9 cells, CFT073
Procedure: To evaluate the efficacy of the synthetic mannoside antagonists to inhibit the ability of CFT073 strain to adhere to epithelial cells, an in vitro adhesion assay was performed. For this purpose, equal amounts of strain CFT073 strain were inoculated in PBS supplemented with different concentrations of each mannoside at final concentrations of 100, 500 μM, and 1 mM and incubated for 3h under static conditions. Bacterial inoculation was used to infect cell line 5637 (HTB-9 cell) monolayers at a multiplicity of infection (MOI) of 10. At 2.5 h post-infection, the number of cell-associated bacteria was calculated by CFU/mL counting (Figure 9). No significant inhibition of bacterial adhesion to bladder cells was obtained using mannoside inhibitors at 100 µM. Conversely, a significant reduction (more than 1 log) in the number of adherent bacteria was observed by increasing the concentration of the mannosides to 500 μM in comparison to non-treated bacteria (Figure 10). The same extent of reduction in bacterial adhesion to bladder cells was obtained by increasing mannosides concentration to 1 mM, thereby showing a dose-dependent effect. […] To appraise qualitatively the reduction of bacterial adhesion, parallel infected cells were fixed, and Giemsa stained.
HTB-9 cells were routinely seeded in cell culture plates and maintained 2–4 days at 37 °C in a humidified atmosphere containing 5% CO2. For the adhesion assay, cells were seeded in 35 mm tissue culture plates at a density of 1 × 10^5 cells/well and incubated at 37 °C for 48 h to reach confluency. CFT073 was grown in LB under mild shaking conditions overnight and resuspended in phosphate buffer (PBS) to an inoculum of ~10^6 CFU/mL (normalized according to OD600). Each mannoside molecule was added to CFT073 inoculant at the final concentrations of 100, 500 μM and 1 mM and incubated for 3 h in static conditions. […] Images were recorded with a Leica DM5000B microscope equipped with DFX340/DFX300 camera and processed using the Leica Application Suite 2.7.0.R1 software (Leica).

E. coli FimH = tested on: E. coli FimH; parameters: method as in PMID 28671638; settings: unit inferred; previous work; cited from earlier work
UPEC strain CFT073 = assay: Mannosides as carbon source, CFU/mL counting in PBS; format: cell-based, Escherichia coli; settings: 24 h, 37 °C, 500 μM (D-mannose also 83 mM)
Procedure: To test whether the above mannoside derivatives could exert bactericidal and/or cytotoxic activities, bacterial growth and cell viability assays were undertaken in the presence of each mannoside at different concentrations. Natural D-mannose (D-Man) was included as control. […] Moreover, no cytotoxic effect was recorded for urinary bladder cell line 5637 (HTB-9 cell) monolayers, as measured by the MTT test (Figure 6). Since D-mannose can serve as nutrient replacement for E. coli when there is a shortage of D-glucose, we tested whether these new derivatives could be used as carbon sources as well [5]. […] Bacteria were incubated for an additional 24 h in the absence and in the presence of different mannosides and the number of viable bacteria was assessed by CFU/mL counting. […] Since carbohydrates can influence the activity of conventional antibiotics, the activity of different classes of antibiotics such as ampicillin (AMP 30 μg/mL), streptomycin (SM 50 µg/mL), and gentamycin (GM 50 µg/mL) in the presence of the synthetic mannoside analogs was evaluated.
Mannosides dissolved in dimethyl sulfoxide DMSO or water at a final concentration of 5 mM were prepared. […] Readings of culture turbidity (OD600) were determined using a plate reader (POLARstar Omega BMG Labtech plate reader, Germany). […]

| SMILES | IC50 [1] | RIP (relative inhibitory potency) [1] | efficiency at reducing FimH-mediated bacterial adherence (result in words) [2] | Kd (E. coli FimH) | lower concentration than natural D-mannose for same extent of bacterial adhesion inhibition ([2]; compared with natural D-mannose) | number of viable bacteria (CFU/mL) compared to non-treated control (UPEC strain CFT073) |
| --- | --- | --- | --- | --- | --- | --- |
| OC[C@H]1O[C@H](C/C=C/c2ccc3ncccc3c2)[C@@H](O)[C@@H](O)[C@@H]1O [Compound 11] | 3.17 ± 2.3 nM | 887 | most efficient; also recorded: better potency in inhibiting bacterial adhesion |  |  |  |
| OC[C@H]1O[C@H](C/C=C/c2ccc(-c3ccccc3)cc2)[C@@H](O)[C@@H](O)[C@@H]1O [Compound 18] | 30.3 ± 9 nM | 93 |  | 17 ± 3.5 nM |  |  |
| OC[C@H]1O[C@H](C/C=C/c2ccccc2-c2ccncc2)[C@@H](O)[C@@H](O)[C@@H]1O [Compound 20] | 0.82 ± 0.4 nM | 3428 |  |  |  |  |
| CCCCCCCO[C@H]1O[C@H](CO)[C@@H](O)[C@H](O)[C@@H]1O [Compound 21, heptyl α-D-mannopyranoside] | 19.4 ± 5.2 nM | 145 |  |  |  |  |
| O=[N+]([O-])c1ccc(O[C@H]2O[C@H](CO)[C@@H](O)[C@H](O)[C@@H]2O)cc1 [Compound 22, para-nitrophenyl α-D-mannopyranoside] | 74.1 nM | 38 |  |  |  |  |
| CO[C@H]1O[C@H](CO)[C@@H](O)[C@H](O)[C@@H]1O [Compound 23, methyl α-D-mannopyranoside] | 2810 nM | 1 | less efficient |  | 164 fold |  |
| OC[C@H]1OC(O)[C@@H](O)[C@@H](O)[C@@H]1O (stereo partly drawn) [D-mannose] |  |  |  |  |  | supports the growth; also recorded: increased significantly |
